Assay results as given in patent publication US10034853B2, “PPAR α/γ dual agonist and its application” (Shanghai University of Traditional Chinese Medicine, priority 2013, dated 2018).
Entries after “also recorded” stand apart in the source; their conditions may differ. Like-named read-outs stand apart in the source and are kept apart here.

Experiments:
db/db mice = assay: Blood glucose and glucose tolerance in db/db mice; format: in vivo; conditions: for reduction of fasting blood glucose compared with vehicle: after 6 days treatment, intragastric
Procedure: Mice were fasted 8 hours before subjected to a dose of 1 g glucose per kg body weight. Blood was taken from tail and measured at 0, 15, 30, 60 and 90 minutes. The data were expressed with means±SE, n=9 for each group.
The db/db mice with leptin receptor mutation begin to show the symptoms of obesity, hyperlipidemia, insulin resistance, hyperglycemia and others at 4 weeks. This is an ideal kind of mice model for obese diabetic mice.
The db/db mice were kept in polycarbonate cages under regulated temperature (22-23° C.) and controlled humidity (50%-60%) with 12-hour light/12-hour dark cycle. All the mice were allowed to adapt to the standard housing conditions. Mice and food were weighed regularly to investigate the changes in body weight and food intake.
During the experimental period, the eight-week old db/db mice were treated with water and a normal standard cylindrical diet. […] An intraperitoneal glucose tolerance test (IPGTT) was carried out after one week of treatment. Mice were fasted 8 hours before subjected to a dose of 1 g glucose per kg body weight. Blood was taken from tail at 0, 15, 30, 60, and 90 minutes. After 11 days of treatment, 0.75 U/kg body weight of insulin was injected intraperitoneally to perform intraperitoneal insulin tolerance test (IPITT). Blood was taken from tail at 0, 15, 30, 60, 90 and 120 minutes. After 20 days, all the db/db mice were anaesthetized by pentobarbital sodium after 8-hour fast. Blood and tissues were collected and stored at −80° C. for the further analysis.

PPAR γ = target: T1, PPAR γ (Mus musculus, UniProt P37238); assay: Dual-luciferase reporter gene assay, PPAR γ transcriptional activity in 293T cells; format: cell-based; conditions: for transcription activity on PPAR γ relative to compound A: 293T reporter assay
T1 construct: pCMX-Gal-mPPAR γ LBD plasmids; expressed in transfected cells; host or cells: 293T cells (ATCC)
T1 sequence (P37238 238-503 limits assumed): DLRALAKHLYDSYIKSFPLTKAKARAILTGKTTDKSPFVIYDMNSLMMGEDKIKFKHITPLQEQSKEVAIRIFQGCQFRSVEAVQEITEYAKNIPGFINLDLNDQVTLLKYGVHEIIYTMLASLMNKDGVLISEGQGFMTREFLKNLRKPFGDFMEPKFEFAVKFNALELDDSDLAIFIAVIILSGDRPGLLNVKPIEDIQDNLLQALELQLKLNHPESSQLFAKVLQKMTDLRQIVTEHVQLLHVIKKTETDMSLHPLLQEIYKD
Procedure: Reporter gene assay was used to detect the impacts of the compounds A, B and C on the transcriptional activities of PPAR γ and PPAR α. The inventors used the PPAR-α, α-LBD, γ and γ-LBD plasmids to detect the impacts of bavachinin on transcription activities of these two PPAR subtype. All the transfections were added to 293T cells (ATCC) overnight and then removed. The positive agonists or the test compounds were diluted in fresh media, and then added into the cells. After incubating for another 24 hours, the cells were harvested to detect luciferase activity.
293T cells were cultured in Dulbecco's modified Eagle's medium (DMEM) with 10% fetal bovine serum and 1% Penicillin/Streptomycin anti-DMEM high glucose medium at 37° C. and 5% CO2. 293T cells in log phase were seeded into 48-well plate with the cell density of 1×10^5˜2×10^5 cells/mL.
(§1) pCMX-Gal-mPPAR γ LBD plasmids, Gal4 reporter vector MH100×4-TK-Luc recombinant plasmids and renilla luciferase internal reference plasmids; PPAR α-LBD plasmids; PPAR γ plasmids; PPAR α plasmids.
When the cells grew to a density of 50 to 80% after seeded in plate overnight, it's good to carry out the transfection. All the transfections, which included 10 μg of total plasmids and 15 μL FuGENE-HD transfection reagent per mL of DMEM, were placed at room temperature for 15 minutes and then added to 293T cells (ATCC) overnight and then removed.
After incubating overnight, the compound A or B or C or positive PPAR γ/α agonists rosiglitazone (as the specific agonistic ligand of PPAR γ) or WY14643 (as the specific agonistic ligand of PPAR α) with different concentrations diluted by complete medium (2, 5, 10, 25, 50 μmol/L) were added into cells. The final concentration of positive agonists was 20 μmol/L).
(§2) After 24 hours, cells were washed twice with PBS to remove the remaining cell culture medium; 65 μL lysis buffer was added into each well and oscillated by the shaker for 15 minutes until cell lysis was complete. Finally the cell lysate was transferred into a 1.5 mL centrifuge tube; The cell lysate was centrifuged at 5000 rpm for 5 minutes and then 10 μL supernatant was taken to a new centrifuge tube for testing.
(§3) We conducted the luciferase reporter assay using Dual-Luciferase Reporter Assay System (Promega, USA). The transfection efficiency was normalized using the internal reference renilla luciferase activity. All transfection experiments were independently repeated for at least three times, with each experimental group having at least two deputy holes.
(§4) The Bio-Tek, Synergy HT multifunctional microplate reader was used to detect the fluorescence intensity of firefly and renilla. After normalizing via the internal reference renilla luciferase activity, the relative luciferase activity was expressed by the ratio of the fluorescence intensity of firefly luciferase and renilla luciferase.
(§5) Data were expressed as mean±standard error of mean (SEM). One-way ANOVA was used to analyze statistically differences between groups with LSD test for multiple comparisons using SPSS 16.0. The EC50 values were calculated using GraphPad Prism 5.0. A P value≤0.05 was regarded as statistically significant different.

PPAR α = target: T2, PPAR α (Homo sapiens, UniProt Q07869); assay: Dual-luciferase reporter gene assay, PPAR α transcriptional activity in 293T cells; format: cell-based; conditions: for EC50: 293T cells, luciferase reporter, 24 hours incubation; for transcription activity on PPAR α relative to compound A: 293T reporter assay
T2 construct: PPAR α-LBD plasmids; expressed in transfected cells; host or cells: 293T cells (ATCC)
T2 sequence (Q07869 239-466 limits assumed): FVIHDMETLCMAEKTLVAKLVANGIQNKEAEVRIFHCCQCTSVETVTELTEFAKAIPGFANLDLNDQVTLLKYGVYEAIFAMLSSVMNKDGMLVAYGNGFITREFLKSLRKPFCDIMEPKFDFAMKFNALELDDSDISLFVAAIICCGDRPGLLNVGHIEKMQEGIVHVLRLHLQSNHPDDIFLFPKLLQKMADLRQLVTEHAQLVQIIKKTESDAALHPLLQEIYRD
Procedure: The inventors used the PPAR-α, α-LBD, γ and γ-LBD plasmids to detect the impacts of bavachinin on transcription activities of these two PPAR subtype. […] The positive agonists or the test compounds were diluted in fresh media, and then added into the cells. After incubating for another 24 hours, the cells were harvested to detect luciferase activity.
as §1
When the cells grew to a density of 50 to 80% after seeded in plate overnight, it's good to carry out the transfection.
The final concentration of positive agonists was 20 μmol/L).
as §2, §3, §4, §5

[1] = test system: PPAR α/γ target genes in HepG2 cells; assay: Real-time PCR of PPAR α/γ target genes in HepG2 cells; format: cell-based; conditions: 24 hours, 25 μM (stated for compound A); for expression of PPAR α/γ target genes (GLUT4, CD36, LPL, Fasn, ACO): β-actin reference
Procedure: Used Real-time fluorescence quantitative PCR (Real-time PCR) to detect how the compounds A, B and C regulate the expression of PPAR γ/α-related target genes in liver HepG2 cells.
HepG2 cells was grown in Dulbecco's modified Eagle's medium (DMEM, HyClone) with 10% fetal bovine serum (FBS, HyClone) and 1% Penicillin/Streptomycin (Gibco) at 37° C. and 5% CO2. HepG2 cells at logarithmic growth phase were plated in 12-well plates with the cell density was 5×10^4 cells/mL, and then were treated by compound A for 24 hours. Quantitative PCR analysis was performed using β-actin as an endogenous reference.
When the density of HepG2 cells was grown about 60%, compound A (dissolved in DMSO as a stock solution) diluted with complete medium was added into cells. The final concentration was 25 μM (μmol/L).
After 24 hours, total RNA of treated HepG2 cells was isolated using TRIzol reagent (Takara, Japan) according to the manual.
The total RNA was reversely transcribed to cDNA applying the reverse transcription kit (Thermo, Mass., USA). We established 20 μL reverse transcription reaction system according to Table 2. The reaction system was mixed and placed at room temperature (25° C.) for 5 minutes, incubated at 42° C. for 1 hour, incubated at 70° C. for 5 minutes. cDNA was stored at −20° C.
All primers were designed by the Prime 3.0 software. Briefly, after an initial denaturation at 95° C. for 10 minutes, the cDNA was amplified by 40 cycles of PCR (95° C., 15 seconds; 60° C., 60 seconds). All experiments were repeated at least three times independently.

3T3-L1 cells = assay: 3T3-L1 preadipocyte differentiation (oil red O staining); format: cell-based; conditions: for adipocyte differentiation activity relative to compound A: 25 μM vs compound A at 5 μM
Procedure: 3T3-L1 fibroblast cell line is widely used for adipocyte differentiation models. […] For adipocyte differentiation, 3T3-L1 cells were seeded into 12-well plate to full confluence for 2 days and then incubated with completed medium containing 10 μg/mL human insulin (Sigma-Aldrich), 1 μM dexamethasone (Sigma-Aldrich) and the test compounds at 37° C. and 7.5% CO2. After 2 days of induction, the medium was replaced with a maintenance medium (completed medium including 10 μg/mL insulin and the test compounds) for additional 2 days (Day 0-Day 2). Thereafter, the medium was refreshed with fresh medium with the test compounds for 4 days (Day 2-Day 6). The test compounds dissolved in dimethylsulfoxide (DMSO) was diluted by the completed medium (final DMSO concentration, 0.1%) at indicated concentration. rosiglitazone was used as a positive compound. The 3T3-L1 cells were washed with PBS twice, fixed with 10% formalin at room temperature for 10 minutes and then stained with oil red O (Sigma-Aldrich, St. Louis, Mo.) at 37° C. for 30 minutes. The pictures were taken using an Olympus microscope (Tokyo, Japan).

[2] = test system: diet-induced obese (dio) C57BL/6J mice; assay: Lipid disorders in diet-induced obese (dio) mice; conditions: for effect on food intake / reduction of serum triglyceride (TG) levels compared to HFD group / effect on body weight: 3-week treatment; for reduction of serum triglyceride (TG) levels compared to HFD group: compound A 2 g per kg HFD; for effect on body weight: vs HFD group
Procedure: For the therapy study, the six-week old female C57BL/6J mice were fed with high-fat diet (HFD, 60% of calories from fat) for 12 weeks to induce obesity and insulin resistance (DIO). The mice were divided into 3 groups according to body weight and fasting blood glucose (n=9, 7, 7, 7). […] After 21 days of dosing, we took blood from heart of anaesthetized fasted 10-hour mice. Tissues were collected and stored at −80° C.
Serum was used for all the analysis of blood parameters.

[3] = 293T cells, luciferase reporter, 24 hours incubation, read-out: EC50 (μM) PPAR γ
[4] = 100 mg/kg/d stated for compound A

SMILES	EC50 (PPAR γ; [3]) [µM]	transcription activity on PPAR γ relative to compound A (PPAR γ)	EC50 (PPAR α; read-out: EC50 (μM) PPAR α) [µM]	transcription activity on PPAR α relative to compound A (PPAR α)	expression of PPAR α/γ themselves [1]	expression of PPAR α/γ target genes (GLUT4, CD36, LPL, Fasn, ACO) [1]	reduction of fasting blood glucose compared with vehicle (db/db mice; [4])	adipocyte differentiation activity relative to compound A (3T3-L1 cells; 3T3-L1 cells)	effect on food intake [2]	reduction of serum triglyceride (TG) levels compared to HFD group [2]	effect on body weight [2]	further results
CN(CCOc1ccc(CC2SC(=O)NC2=O)cc1)c1ccccn1 (stereo not drawn) [rosiglitazone, reference compound]												reduction of fasting blood glucose compared with vehicle (db/db mice; rosiglitazone 5 mg/kg/d): 5%
COc1cc2c(cc1CC=C(C)C)C(=O)CC(c1ccc(OC(C)=O)cc1)O2 (stereo not drawn) [compound C]	12.3	less than that of compound A	12.9	less than that of compound A	did not effect	significantly increased	~8%	nearly equal to the activity of compound A at 5 μM	without affecting	12%	without affecting	
COc1cc2c(cc1CC=C(C)C)C(=O)C[C@@H](c1ccc(O)cc1)O2 [compound A, bavachinin]					did not effect	significantly increased	about 20%		without affecting; also recorded: did not affect	around 23%	without affecting; also recorded: did not increase	EC50 (PPAR γ): 8.6 µM; PPAR γ transactivation compared with rosiglitazone (ROS) (PPAR γ; compound at 25 μM vs rosiglitazone at 20 μM): nearly equal to PPAR γ agonist rosiglitazone (ROS) at 20 μM; EC50 (PPAR α; EC50 (μM) PPAR α): 17.3 µM; PPAR α transactivation compared with full agonist WY14643 (PPAR α; WY14643 final concentration 20 μmol/L): more transactivation; glucose tolerance (IPGTT) (db/db mice; 100 mg/kg/d, 1 g/kg glucose after 8 hours fast): improved; 3T3-L1 adipocyte differentiation (3T3-L1 cells; 1 μM, with insulin and dexamethasone, 6 days, oil red O): induced 3T3-L1 cell differentiation and lipid droplets formation; 3T3-L1 adipocyte differentiation (3T3-L1 cells; 10 μM, with insulin and dexamethasone, 6 days, oil red O): almost fully differentiated; 3T3-L1 adipocyte differentiation (3T3-L1 cells; 25 μM, with insulin and dexamethasone (FIG. 5C)): induced to differentiate into adipocytes; potency on adipocyte differentiation relative to rosiglitazone (3T3-L1 cells; 3T3-L1 cells): as potent as rosiglitazone; serum TG levels in contrast to HFD group ([2]; FIG. 6D): significantly reduced
CC(=O)Oc1ccc(C2CC(=O)c3cc(CC=C(C)C)c(OC(C)=O)cc3O2)cc1 (stereo not drawn) [compound B]	18.8	less than that of compound A	28.5	less than that of compound A	did not effect	significantly increased	about 10%	nearly equal to the activity of compound A at 5 μM	without affecting	20%	without affecting	
